Activity calls are given as the source filed them.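 How the source made its calls: active means compounds giving half or more protection of infected cells from virus-caused growth loss, again on retest; inactive means the rest.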
Test system: CEM cells HIV-1 protection, formazan growth assay
Assay: NCI AIDS Antiviral Assay
Details: for IC50: measured here: growth of uninfected CEM cells
How it was run: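 Protection of CEM cells against HIV-1 measured as cell growth via soluble formazan read-out, with five concentrations tested on both infected and uninfected cells; failure to protect may reflect toxicity.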

Structure (SMILES)	EC50 [µM]	IC50 [µM]	outcome
CC1(c2ccccc2)OC(=O)c2ccccc21 (stereo not drawn)	> 200	> 100	–
NS(=O)(=O)c1ccc(NNc2c3ccccc3nc3ccccc23)cc1	> 200	10.7	–
CCCCN(C)C(=O)C1=C(C)NC(C)=C(C(=O)N(C)CCCC)C1	> 200	102	–
BrCc1ccc2ccc3ccc(CBr)nc3c2n1	> 200	3.72	–
COc1ccc(S(=O)(=O)N(C)CC(=O)O)cc1	–	–	inactive
CC12CCC(c3no[n+]([O-])c31)C2(C)C (stereo not drawn)	> 200	110	–
CCSC(=O)NNc1nc2ccccc2s1	> 200	63.1	–
N#Cc1c(-c2ccc(Cl)cc2)c(C#N)c(=O)n(NS(=O)(=O)c2ccccc2)c1S	> 200	17	–
Cc1ccc(S(=O)(=O)/C(C#N)=C/NC(=S)Nc2ccc(S(N)(=O)=O)cc2)cc1	–	–	inactive
Cc1ccccc1NC(=O)c1cc(-c2ccc([N+](=O)[O-])cc2)nc(=S)[nH]1	> 490	> 490	–
S=c1nc2sc3c(c2c(Nc2ccccc2)[nH]1)CCCC3	> 200	> 200	–
Fc1cccc(Cl)c1C1SCc2nc3cc4ccccc4cc3n21 (stereo not drawn)	> 200	158	–
Cc1ccccc1CN1CC=c2ccccc2=N1	51.3	129	–
NCCCNCCS	> 589	30.2	–
CCOC(=O)C(CC1COc2ccccc2O1)C(=O)OCC (stereo not drawn)	–	–	inactive
O=C1CN2C(Cl)(Cl)C2(c2ccccc2)c2cc(Cl)ccc2N1CC(F)(F)F (stereo not drawn)	> 200	29.5	–
O=C1N[C@@H](Cc2ccccc2)C(=O)N2CCCC[C@H]12	–	–	inactive
O=C1c2ccccc2C(=O)N1C/C=N/NS(=O)(=O)c1ccc(Br)cc1	> 112	> 112	–
N#C/C(=C/Sc1ccccc1)C(=O)O	–	–	inactive
CCOC(=O)/C(C#N)=N\Nc1ccc(-n2c(C)nc3ccc(Br)cc3c2=O)cc1	> 182	75.9	–
CCOC(=O)c1cc2cc3c4c(c2oc1=O)CCCN4CCC3	> 115	> 115	–
CC1=C(O)C(=O)C2C(=O)C1C1Cc3ccccc3C21 (stereo not drawn)	> 513	> 513	–
COc1ccc2c(c1OC)C1CCCCC1SCC2=O (stereo not drawn)	> 200	105	–
COc1ccccc1NC(=O)CC(=O)N1N=C(N2c3ccccc3Sc3ccccc32)CC1c1ccccc1 (stereo not drawn)	> 200	> 200	–

Structure (SMILES)	EC50 [µM]	IC50 [µM]	outcome
COc1ccc(N=Cc2c(O)ccc3c2oc2cc(Cl)c(O)c(Cl)c23)cc1	> 200	2.95	–
COc1cc2c(cc1O)[C@H](C)C(c1ccccc1OC)O2 (stereo partly drawn)	> 66.1	3.98	–
COc1ccc2nc(-c3ccccc3)c(=O)[nH]c2c1	> 200	45.7	–
CC(C)(C)C1=CC(=NC(=O)c2cc([N+](=O)[O-])cc([N+](=O)[O-])c2)C=C(C(C)(C)C)C1=O	> 6.03	> 6.03	–
CC12CCC(C(Br)C1=O)C2(C)CBr (stereo not drawn)	–	–	inactive
CCSc1nc(C)nc2c1sc1nc3ccccc3n12	> 100	> 100	–
O=[N+]([O-])/C(C(Cl)=C(Cl)Cl)=C1/OCCS1	> 200	107	–
NNC1=Nc2cc3c(cc2C(=O)N2C[C@H](O)CC12)OCO3 (stereo partly drawn)	> 200	> 200	–
C=CCCCCCCCCC(=O)NCc1ccncc1	> 200	97.7	–
O=[N+]([O-])c1ccc2nc(/C=C(\O)c3ccccc3)c(/C=C(\O)c3ccc(Cl)cc3)nc2c1	> 100	11	–
C(=C\c1ccnc2ccccc12)/c1ccc2c(c1)OCO2	–	66.1	inactive
CC(=O)OCC1OC(Nc2[nH]c(=O)[nH]c(=O)c2N=O)C(OC(C)=O)C(OC(C)=O)C1OC(C)=O (stereo not drawn)	> 200	> 200	–
COC(=O)[C@@H]1C[C@@H](OS(=O)(=O)c2ccc(C)cc2)CN1C(=O)OCc1ccccc1	–	–	inactive
CCOC(CN=C=S)OCC	> 200	27.5	–
O=C1[C@@H](c2ccc(Cl)cc2)[C@H]2CC=C[C@H]2N1O	> 355	61.7	–
CC(=O)OC1C2C(=C(C)C(=O)O[C@@H]2c2ccoc2)[C@@]2(C)CC3CC(C)(C(=O)O3)C12 (stereo partly drawn)	> 200	> 200	–
CN(C)c1ccc(N=O)cc1	> 2	1.12	–
COC(=O)c1ccc(Cl)cc1NC(=O)C1CCCCC1	–	–	inactive
CC(=O)N(CCc1ccccc1)C(C#N)c1ccccc1 (stereo not drawn)	> 200	> 200	–
CC/C=C\C/C=C\C/C=C\CCCCCCCC(=O)OCC(COC1OC(CS(=O)(=O)O)C(O)C(O)C1O)OC(=O)CCCCCCCCCCCCCCC (stereo not drawn)	> 10	5.62	–
O=S(=O)(c1ccccc1)n1c2ccc(Br)cc2c2nc3ccccc3nc21	> 200	> 200	–
CC(NC(=O)OC(C)(C)C)C(=O)NC1CCCC1 (stereo not drawn)	> 200	> 200	–
Cc1n(Cc2ccccc2)c2c([n+]1C)C(=O)c1ccccc1C2=O	> 562	0.178	–
O=C(O)CS(=O)(=O)O	> 200	> 200	–

Structure (SMILES)	EC50 [µM]	IC50 [µM]	outcome
CN(C)CC1C(O)C2CCN1CC2 (stereo not drawn)	–	–	inactive
O=S1(=O)C[C@@H](NCc2ccccc2)[C@H](NCc2ccccc2)C1	> 200	> 200	–
COCC(OC)C(CC=C(C#N)C#N)OC (stereo not drawn)	> 44.7	> 44.7	–
CCCCCCCCCCCCCCCCOP(=O)(O)OP(=O)(O)OCC1OC(n2ccc(N)nc2=O)CC1O (stereo not drawn)	> 100	> 100	–
CN1CCN(c2nc3cc(F)ccc3n3cccc23)CC1	> 200	27.5	–
C=C(CC(=O)Nc1ccc(C(=O)OC)o1)C(=O)OC	> 200	3.89	–
C(=C(c1ccccc1)c1ccccc1)=C(c1ccccc1)c1ccccc1	> 28.8	> 28.8	–
CON(C)C(=O)C(C)NC(=O)OC(C)(C)C (stereo not drawn)	> 155	> 155	–
O=C(/C=C/c1ccncc1)c1ccccc1	> 324	6.03	–
Cn1c2ccccc2c(=Nc2ccc(S(N)(=O)=O)cc2)c2ccccc21	–	–	inactive
CCNC(=O)c1ccc(C)c(N=NN(C)C)c1	> 288	> 288	–
CS(=O)(=O)c1noc(N)n1	> 1510	1260	–
O=C(O)c1ccccc1P(=O)(O)c1ccccc1	> 200	> 200	–
COCC(C)(C)N=CN1CCc2ccccc2C1	> 1000	> 1000	–
Cc1ccccc1-n1c2nc(=O)n(C)c(=O)c-2nc2ccccc21	–	–	inactive
Clc1ccc(N=Nc2nc3ccccc3nc2N=Nc2ccc(Cl)cc2Cl)c(Cl)c1	> 0.794	> 0.794	–
CC(C)(C)c1cc(C(O)(C(=O)O)C(=O)O)cc(C(C)(C)C)c1O	> 200	> 200	–
O=c1c2ccccc2c2nccn2c2ccccc12	182	> 200	–
CCOC(=O)C(CCCCn1cnc2ncnc(Cl)c21)(NC(C)=O)C(=O)OCC	–	–	inactive
O=C(CCC(NC(=O)OCc1ccccc1)C(=O)OCc1ccccc1)Nc1ccc(OCc2ccccc2)cc1 (stereo not drawn)	> 200	126	–
c1csc(-c2cscc2-c2ccsc2)c1	> 200	38.9	–
C1=Nc2ccccc2Cn2nncc21	> 1350	21.9	–

Source: PubChem BioAssay AID179 (DTP/NCI, 2004)
